These results are taken from patent publication US12419854B2, “Methods for treating or preventing gout or hyperuricemia” (Arthrosi Therapeutics, Inc., priority 2018, dated 2025).

In series [1] the target is T1, human URAT1 uptake transporter (Homo sapiens, UniProt Q96S37).
T1 construct: expressed in transfected cells
T1 sequence (Q96S37 1-553): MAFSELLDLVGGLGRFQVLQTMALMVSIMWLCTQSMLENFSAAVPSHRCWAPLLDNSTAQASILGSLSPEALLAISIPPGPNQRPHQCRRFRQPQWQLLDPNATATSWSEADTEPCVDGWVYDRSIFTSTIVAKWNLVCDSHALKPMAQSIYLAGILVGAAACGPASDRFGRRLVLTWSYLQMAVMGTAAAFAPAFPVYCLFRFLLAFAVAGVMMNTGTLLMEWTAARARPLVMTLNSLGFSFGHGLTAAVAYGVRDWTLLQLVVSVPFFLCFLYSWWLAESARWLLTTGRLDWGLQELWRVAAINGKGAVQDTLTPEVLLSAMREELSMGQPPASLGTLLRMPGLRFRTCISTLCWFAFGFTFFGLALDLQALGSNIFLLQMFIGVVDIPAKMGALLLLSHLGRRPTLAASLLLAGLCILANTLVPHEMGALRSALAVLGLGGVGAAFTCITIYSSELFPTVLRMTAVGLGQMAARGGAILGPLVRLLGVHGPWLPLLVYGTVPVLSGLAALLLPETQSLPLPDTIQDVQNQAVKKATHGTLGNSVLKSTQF
Nature of the series: Inhibition of URAT1-mediated uric acid uptake in MDCKII cells stably expressing human URAT1. It is filed as cell-based. As to the method: Uptake experiments were performed using MDCKII cells stably expressing the human URAT1 uptake transporter. Cells were cultured at 37+1° C. in an atmosphere of 95:5 air:CO2 and were plated onto standard 96-well tissue culture plates at the cell number described in Table 1.
Radiolabeled probe substrate transport was determined by measuring an aliquot (35 μL) from each well for liquid scintillation counting.

Series [2] in a line: In vitro metabolism in human liver microsomes (HPLC-MS profiling). The note with it: for % MS response, Parent: human liver microsomes 0.5 mg/mL, NADPH, 60 minutes, 37° C. It is filed as in vitro ADME. How it is done:
After pre-warming the mixture at 37° C. for 5 minutes, the reaction was initiated by the addition of 1 mM of NADPH and incubated for 60 minutes at 37° C. in a shaking water bath. The reaction was terminated by the addition of 0.5 mL ice-cold acetonitrile. Time 0 incubation was also performed by adding acetonitrile before the addition of microsomes to the incubation mixture as a reference sample for each species. Following vortex and centrifugation at 15,000 g for 3 minutes at room temperature, resulting supernatant was concentrated under nitrogen flow at 33° C., until approximately 0.5 mL of sample remained. The extract was then transferred to a 1.5-mL centrifuge vial for centrifugation at 15,000 g for 3 minutes. Finally, aliquots of the supernatant were transferred to HPLC vials for HPLC-MS analyses.
MS Analysis: Mass spectral analyses were performed on an Agilent single quadruple mass spectrometer equipped with an Agilent 1100 HPLC system. The mass spectrometer was fitted with an electrospray ionization (ESI) source and operated in a negative scan mode between 400 and 500 amu:
Metabolic profiling of benzbromarone was conducted using a similar method as described above.
A general note: Microsomes from liver hold many membrane-bound enzymes, among them those of drug oxidation.

In series [3] the test system is Sprague-Dawley Rats. Nature of the series: 4-week oral toxicity study in Sprague-Dawley rats. It is filed as in vivo. Conditions: rat. From the text: (§1) On Day 29, surviving TS animals (all animals in study) were euthanized and subjected to a full gross necropsy, which included a macroscopic examination of the external surface of the body, all orifices, cranial cavity, external surface of the brain, the thoracic, abdominal and pelvic cavities and their viscera, cervical areas, carcass and genitalia. Organs were weighed as soon as possible from all main study animals at the scheduled necropsies. Tissues from Groups 1 and 5 animals at the terminal sacrifice, from animals found dead or moribund-sacrificed, and gross lesions from all animals, were embedded in paraffin, sectioned, stained with hematoxylin and eosin and examined microscopically by a board certified veterinary pathologist.

Series [4] relates to Cynomolgus Monkeys. Put plainly: 4-week oral toxicity study in cynomolgus monkeys. It is filed as in vivo.
Description: as §1, with “from” for “from Groups 1 and 5”

Series [5] can be described thus: Phase 1 single dose study, plasma pharmacokinetics. It is filed as in vivo, human. The note with it: for power model intercept (a) of exposure versus dose: male, human, plasma, oral. As to the method:
(§2) The dose groups included Cohort 1 (15 mg or placebo, fasted, oral suspension), Cohort 2 (50 mg or placebo, fasted, suspension), Cohort 3 (100 mg or placebo, fasted, oral suspension), Cohort 4 (150 mg or placebo, fasted, oral suspension), Cohort 6 (50 mg or placebo, fed, oral suspension), and Cohort 7 (50 mg or placebo, fasted, oral capsule). […] An additional 8 subjects received placebo.
The results are consistent with observation in animal testing and higher exposure of S-enantiomer was attributed to the conversion of the R-enantiomer in vivo.

Series [6] deals with serum uric acid (sUA). Nature of the series: Phase 1 single dose study, pharmacodynamics (serum uric acid). It is filed as in vivo, human. The note with it: for Percent change in serum uric acid, mean, time-matched (Day-1) baseline: 0 h. How it is done:
as §2
Decrease in sUA appeared to reach a plateau at 100 mg or lower.

In series [7] the test system is serum uric acid (sUA). Put plainly: Phase 1 multiple ascending dose study, pharmacodynamics (serum uric acid). It is filed as in vivo, human. Conditions: 25, 50 or 75 mg once daily oral capsules, fasted, 10 days; in words. From the text: An additional 6 subjects received placebo.
Steady-state sUA lowering effect was achieved after approximately 5 days.

By inhibition is commonly meant the percentage by which the read-out fell short of the control.

Each structure is given as a SMILES string. Read-outs that look alike come from different tables or passages of the source.

As to `[2H]c1c([2H])c([2H])c2c(C(=O)c3cc(Br)c(O)c(Br)c3)c(C(C)O)oc2c1[2H]` (racemic) [Compound 1, (3,5-dibromo-4-hydroxyphenyl)(2-(1-hydroxyethyl)benzofuran-3-yl-4,5,6,7-d4)methanone], the inhibition at 10 µM in series [1] (MDCK-II, at 10 μM, read-out: inhibition of URAT1 mediated uric acid accumulation) was 100%. Further, the “in vitro URAT1 potency versus benzbromarone” value in series [1] (comparison in words) is given as “better in vitro URAT1 potency than benzbromarone”. In addition, the “% MS response, Parent” value in series [2] turned out to be 82.5%. The “formation of 6-OH benzbromarone and 5,6-di-OH benzbromarone metabolites” value in series [2] (in words) is “not formed”. The “effect on food consumption of body weight” value was “no effect” in series [3] (2-50 mg/kg/day oral gavage, 28 days) and “no effect” in series [4] (monkey, 10-150 mg/kg/day, 28 days). Also, the kidney weight result in series [3] (female, 50 mg/kg/day, 28 days) is “kidney weight increase”. The liver weight entry in series [3] (female, ≥15 mg/kg/day, 28 days) is recorded as “Liver weight increase”; in series [3] (male, 50 mg/kg/day, 28 days), “Liver weight increase”; in series [4] (monkey, male, 150 mg/kg/day, no statistical difference), “trended higher”. For the same molecule, the “human equivalent of NOAEL” value in series [3] (in vivo) is 500 mg; in series [4] (cynomolgus monkey, in vivo), 600 mg. The “food effect on Cmax in the fed state” value in series [5] (50 mg, fed versus fasted) is reported as about 33%. In addition, in series [5] (15 to 150 mg, fasted, in words), the “dose proportionality of AUC (AUCinf)” value is “dose proportional increases”. The “dose proportionality of Cmax” value in series [5] (15 to 150 mg, fasted, in words) is “slightly less than dose proportionality increase”. Besides, the power model intercept (a) of exposure versus dose turned out to be 944 ng·h/mL in series [5] (15 to 150 mg, fasted, AUCinf (μg · h/mL) = a × dose^b, read-out: power model intercept, AUCinf) and 96.6 ng/mL in series [5] (15 to 150 mg, fasted, Cmax (μg/mL) = a × dose^b, read-out: power model intercept, Cmax). The “AUCinf (Total)” value in series [5] (single oral dose 50 mg, fed, suspension (C6)) came out at 51200 ng·h/mL. The “volume of distribution, range over dose groups” value in series [5] (single oral dose 15-150 mg) was 14 to 18 L. In addition, in series [6] (50 mg single dose, throughout 120 hours post-dose, in words), the “sUA reduction with versus without food” value is listed as “no difference”. Further, the “Percent change in serum uric acid, mean, time-matched (Day-1) baseline” value in series [6] (single oral dose 15 mg, fasted) is reported as −3.4%; in series [6] (single oral dose 50 mg, fasted (suspension)), −8.9%; in series [6] (single oral dose 50 mg, fed), −1.0%; in series [6] (single oral dose 100 mg, fasted), −6.6%. Besides, the “Serum uric acid, mean” value in series [6] (single oral dose 50 mg, fasted (suspension), −12 h (pre-dose)) amounted to 5.9 mg/dL; in series [6] (single oral dose 50 mg, fasted (suspension), −24 h (pre-dose)), 6.7 mg/dL; in series [6] (single oral dose 50 mg, fasted, Capsule, −12 h (pre-dose)), 5.5 mg/dL; in series [6] (single oral dose 50 mg, fasted, Capsule, −18 h (pre-dose)) it was 5.5 mg/dL; in series [6] (single oral dose 50 mg, fed, −12 h (pre-dose)), 6.2 mg/dL; in series [6] (single oral dose 50 mg, fed, −24 h (pre-dose)), 6.5 mg/dL. The “Serum uric acid, mean” value in series [6] (single oral dose 150 mg, fasted, −18 h (pre-dose)) is reported as 5.7 mg/dL. In addition, the “mean sUA levels versus placebo group” value in series [6] (single oral dose 15, 50, 100, and 150 mg fasted, at 50 mg or higher, in words) is “dose-dependent decreases”; in series [7], “dose-dependent decreases”.

`CCc1oc2ccccc2c1C(=O)c1cc(Br)c(O)c(Br)c1` [Benzbromarone, reference compound]: the “% MS response, Parent” value in series [2] is reported as 13.1%.
